Among the data in ChEMBL document CHEMBL5608242 (J Med Chem, 2024) are inhibition and IC50 values, retold here.

pIC50: −log10 of the molar value. Where only a bound is given, the exact number is not on record here.

T2 sequence (Q13547 whole entry): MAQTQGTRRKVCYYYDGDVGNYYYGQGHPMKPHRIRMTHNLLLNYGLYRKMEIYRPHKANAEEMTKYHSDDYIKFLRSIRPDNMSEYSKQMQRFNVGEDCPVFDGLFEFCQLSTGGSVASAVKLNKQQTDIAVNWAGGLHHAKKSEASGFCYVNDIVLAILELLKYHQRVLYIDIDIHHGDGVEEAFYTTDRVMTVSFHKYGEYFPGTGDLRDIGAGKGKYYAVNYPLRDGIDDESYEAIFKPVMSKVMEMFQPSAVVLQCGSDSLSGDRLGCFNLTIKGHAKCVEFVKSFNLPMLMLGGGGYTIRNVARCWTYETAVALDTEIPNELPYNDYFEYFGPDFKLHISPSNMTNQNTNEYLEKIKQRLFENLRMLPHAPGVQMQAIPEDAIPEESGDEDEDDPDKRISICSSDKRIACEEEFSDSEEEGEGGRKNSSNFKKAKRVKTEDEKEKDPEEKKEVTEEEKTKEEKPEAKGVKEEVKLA

The first experiment has as its target T1, Amine oxidase [flavin-containing] B (Homo sapiens, UniProt P27338).
T1 sequence (P27338 whole entry): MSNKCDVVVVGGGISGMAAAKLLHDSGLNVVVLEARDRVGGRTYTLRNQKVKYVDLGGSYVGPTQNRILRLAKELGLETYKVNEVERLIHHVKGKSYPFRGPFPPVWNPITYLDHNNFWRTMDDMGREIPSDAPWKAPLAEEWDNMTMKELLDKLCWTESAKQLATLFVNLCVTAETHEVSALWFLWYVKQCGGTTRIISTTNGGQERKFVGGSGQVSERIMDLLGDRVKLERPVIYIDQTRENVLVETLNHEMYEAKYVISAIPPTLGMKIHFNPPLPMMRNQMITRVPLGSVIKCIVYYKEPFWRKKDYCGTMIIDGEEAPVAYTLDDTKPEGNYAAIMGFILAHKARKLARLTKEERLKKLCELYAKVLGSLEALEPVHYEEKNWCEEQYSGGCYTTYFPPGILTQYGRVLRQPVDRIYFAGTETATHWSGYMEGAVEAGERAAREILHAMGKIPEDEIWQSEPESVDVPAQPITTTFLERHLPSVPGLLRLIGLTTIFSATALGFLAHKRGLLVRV
Test: not given
Particulars: read-out: INH.
Regarding `C#CCN1CCN(CCCOc2ccc3c(ccn3S(=O)(=O)c3ccc(C(=O)NO)cc3)c2)CC1`, the inhibition at 1 µM is 28%.
On the same count and under the same terms, the value for `O=C(NO)c1ccc(S(=O)(=O)n2ccc3cc(OCCCN4CCCCC4)ccc32)cc1` was less than 10%; that for `CCCNNC(=O)c1ccc(S(=O)(=O)n2ccc3cc(OCCCN4CCCCC4)ccc32)cc1` was less than 10%; that for `CCCNNC(=O)c1ccc(S(=O)(=O)n2ccc3cc(OC)ccc32)cc1` was less than 10%.

The next experiment deals with Cholinesterase (Equus caballus, UniProt P81908).
Chain of Cholinesterase (P81908 whole entry): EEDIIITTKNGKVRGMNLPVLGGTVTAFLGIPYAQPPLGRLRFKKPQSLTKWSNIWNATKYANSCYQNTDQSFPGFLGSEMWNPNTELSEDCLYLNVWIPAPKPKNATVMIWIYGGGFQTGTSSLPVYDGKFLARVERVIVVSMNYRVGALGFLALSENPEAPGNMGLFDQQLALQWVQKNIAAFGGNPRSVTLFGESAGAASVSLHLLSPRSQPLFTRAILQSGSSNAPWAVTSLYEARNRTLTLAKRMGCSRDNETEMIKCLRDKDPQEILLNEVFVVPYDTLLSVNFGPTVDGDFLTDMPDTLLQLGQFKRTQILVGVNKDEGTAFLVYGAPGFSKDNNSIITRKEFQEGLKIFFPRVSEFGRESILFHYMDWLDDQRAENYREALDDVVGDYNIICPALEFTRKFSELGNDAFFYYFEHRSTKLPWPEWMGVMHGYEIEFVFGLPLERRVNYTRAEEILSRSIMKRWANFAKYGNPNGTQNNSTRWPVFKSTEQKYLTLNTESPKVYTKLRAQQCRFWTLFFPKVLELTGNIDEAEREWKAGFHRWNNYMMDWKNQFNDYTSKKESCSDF
Test: not given
Conditions: not given
In general, pIC50 refers to the negative decadic logarithm of the IC50, by convention in mol/L. A lower pIC50 goes with a high IC50. The compound `C#CCN1CCN(CCCOc2ccc3c(ccn3S(=O)(=O)c3ccc(C(=O)NNCCC)cc3)c2)CC1` had a pIC50 of 5.06.

A further experiment addresses T2, Histone deacetylase 1 (Homo sapiens, UniProt Q13547). The experiment can be described thus: biochemical.
Conditions: not given
`O=C(NO)c1ccc(S(=O)(=O)n2ccc3cc(OCCCN4CCCCC4)ccc32)cc1` had a pIC50 of 6.13.
`O=C(NO)c1ccc(S(=O)(=O)n2ccc3cc(OCc4ccccc4)ccc32)cc1` gave a pIC50 of 5.40.
On the same count and under the same terms, the value for `NNC(=O)c1ccc(S(=O)(=O)n2ccc3cc(OCCCN4CCCCC4)ccc32)cc1` was less than 5.00; that for `C#CCN1CCN(CCCOc2ccc3c(ccn3S(=O)(=O)c3ccc(C(=O)NN)cc3)c2)CC1` was less than 5.00.
On the same count and under the same terms, the same measure for `COc1ccc2c(ccn2S(=O)(=O)c2ccc(C(=O)NN)cc2)c1`: less than 5.00; for `NNC(=O)c1ccc(S(=O)(=O)n2ccc3cc(OCc4ccccc4)ccc32)cc1`: less than 5.00.

The next experiment addresses T3, Protein deacetylase HDAC6 (Homo sapiens, UniProt Q9UBN7).
T3 sequence (Q9UBN7 whole entry): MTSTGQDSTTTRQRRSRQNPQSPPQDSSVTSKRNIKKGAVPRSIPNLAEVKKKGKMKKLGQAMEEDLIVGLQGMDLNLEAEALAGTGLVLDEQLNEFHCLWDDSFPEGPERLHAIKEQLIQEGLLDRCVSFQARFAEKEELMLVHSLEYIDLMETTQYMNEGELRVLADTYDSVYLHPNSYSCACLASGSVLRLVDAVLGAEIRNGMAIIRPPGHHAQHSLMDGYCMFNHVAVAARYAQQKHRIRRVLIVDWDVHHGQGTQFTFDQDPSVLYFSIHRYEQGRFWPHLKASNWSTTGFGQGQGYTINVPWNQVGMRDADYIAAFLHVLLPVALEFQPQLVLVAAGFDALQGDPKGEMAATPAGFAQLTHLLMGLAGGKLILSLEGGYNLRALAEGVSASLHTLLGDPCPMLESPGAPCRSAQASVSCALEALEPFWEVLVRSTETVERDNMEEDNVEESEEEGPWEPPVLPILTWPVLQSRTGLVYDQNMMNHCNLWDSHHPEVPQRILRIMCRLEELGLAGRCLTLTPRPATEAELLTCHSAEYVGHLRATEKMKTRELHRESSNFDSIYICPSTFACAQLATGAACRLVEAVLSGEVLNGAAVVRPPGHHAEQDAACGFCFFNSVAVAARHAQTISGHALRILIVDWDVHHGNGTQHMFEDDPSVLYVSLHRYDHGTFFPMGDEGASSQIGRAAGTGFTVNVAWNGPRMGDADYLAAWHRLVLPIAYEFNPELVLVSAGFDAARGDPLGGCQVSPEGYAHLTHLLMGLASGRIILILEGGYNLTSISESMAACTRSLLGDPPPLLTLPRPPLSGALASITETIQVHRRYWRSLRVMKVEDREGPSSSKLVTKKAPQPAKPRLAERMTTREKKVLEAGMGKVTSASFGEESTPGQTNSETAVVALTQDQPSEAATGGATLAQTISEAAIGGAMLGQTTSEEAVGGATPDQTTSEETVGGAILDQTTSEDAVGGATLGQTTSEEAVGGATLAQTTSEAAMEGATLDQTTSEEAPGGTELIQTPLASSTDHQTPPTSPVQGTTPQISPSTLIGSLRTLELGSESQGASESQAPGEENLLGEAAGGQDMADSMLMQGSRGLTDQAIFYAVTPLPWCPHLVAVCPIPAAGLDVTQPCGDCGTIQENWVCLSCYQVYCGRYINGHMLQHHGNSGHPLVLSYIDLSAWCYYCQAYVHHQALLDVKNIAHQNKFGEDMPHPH
The experiment can be described thus: biochemical.
Conditions: not given
Regarding `C#CCN(C)Cc1cc2cc(OCCCN3CCCCC3)ccc2n1C`, the pIC50 is less than 5.00.
Compound `COc1ccc2c(ccn2S(=O)(=O)c2ccc(C(=O)NO)cc2)c1` gave a pIC50 of 6.77.
In turn, `C#CCN1CCN(CCCOc2ccc3c(ccn3S(=O)(=O)c3ccc(C(=O)Nc4ccccc4N)cc3)c2)CC1` showed a negative logarithm of the IC50 (pIC50) of less than 5.48.
Compound `CCCNNC(=O)c1ccc(S(=O)(=O)n2ccc3cc(OCCCN4CCCCC4)ccc32)cc1` showed a pIC50 of less than 5.00.
For `NNC(=O)c1ccc(S(=O)(=O)n2ccc3cc(OCCCN4CCCCC4)ccc32)cc1`, the pIC50 is less than 5.00.
In turn, `Nc1ccccc1NC(=O)c1ccc(S(=O)(=O)n2ccc3cc(OCc4ccccc4)ccc32)cc1` had a pIC50 of less than 5.00.
On to `CCCN(CCC)NC(=O)c1ccc(S(=O)(=O)n2ccc3cc(OC)ccc32)cc1`, for which the pIC50 is less than 5.00.
Regarding `C#CCN1CCN(CCCOc2ccc3c(ccn3S(=O)(=O)c3ccc(C(=O)NN)cc3)c2)CC1`, the pIC50 is less than 5.00.
Same read-out and setting: the same measure for `COc1ccc2c(ccn2S(=O)(=O)c2ccc(C(=O)NN)cc2)c1`: less than 5.00; for `C#CCN1CCN(CCCOc2ccc3c(ccn3S(=O)(=O)c3ccc(C(=O)NNCCC)cc3)c2)CC1`: less than 5.00.
On to `NNC(=O)c1ccc(S(=O)(=O)n2ccc3cc(OCc4ccccc4)ccc32)cc1`, for which the pIC50 is less than 5.00.
The compound `Nc1ccccc1NC(=O)c1ccc(S(=O)(=O)n2ccc3cc(OCCCN4CCCCC4)ccc32)cc1` had a pIC50 of less than 5.00.
The same measure, in the same setting: the value for `CCCNNC(=O)c1ccc(S(=O)(=O)n2ccc3cc(OC)ccc32)cc1` was less than 5.00.

Another experiment addresses T2, Histone deacetylase 1. The experiment can be described thus: biochemical.
Conditions: not given
This is another data set of the same source.
With `C#CCN(C)Cc1cc2cc(OCCCN3CCCCC3)ccc2n1C`, the pIC50 is less than 5.00.
Same read-out and setting: the same measure for `CCCN(CCC)NC(=O)c1ccc(S(=O)(=O)n2ccc3cc(OC)ccc32)cc1`: less than 5.00.

A further experiment deals with Histone deacetylase 2 (Homo sapiens, UniProt Q92769). The experiment is described as follows: biochemical.
Chain of Histone deacetylase 2 (Q92769 whole entry): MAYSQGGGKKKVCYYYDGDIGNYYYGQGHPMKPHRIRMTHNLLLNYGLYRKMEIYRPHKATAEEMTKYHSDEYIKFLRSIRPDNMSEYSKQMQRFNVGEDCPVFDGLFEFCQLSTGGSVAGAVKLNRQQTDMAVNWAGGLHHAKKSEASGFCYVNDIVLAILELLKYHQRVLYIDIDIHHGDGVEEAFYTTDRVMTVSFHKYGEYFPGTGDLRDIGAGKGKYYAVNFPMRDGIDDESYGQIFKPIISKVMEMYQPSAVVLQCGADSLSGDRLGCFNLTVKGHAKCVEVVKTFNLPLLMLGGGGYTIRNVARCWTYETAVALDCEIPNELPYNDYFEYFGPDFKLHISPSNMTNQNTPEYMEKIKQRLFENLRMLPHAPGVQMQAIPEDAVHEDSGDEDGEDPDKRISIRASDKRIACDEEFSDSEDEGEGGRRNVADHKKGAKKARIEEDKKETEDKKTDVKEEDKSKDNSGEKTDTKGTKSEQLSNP
Conditions: not given
Compound `C#CCN1CCN(CCCOc2ccc3c(ccn3S(=O)(=O)c3ccc(C(=O)NO)cc3)c2)CC1` showed a pIC50 of 5.27.
Consider `O=C(NO)c1ccc(S(=O)(=O)n2ccc3cc(OCCCN4CCCCC4)ccc32)cc1`, for which the pIC50 is 5.72.

For a further experiment, the target named is Histone deacetylase 3/Nuclear receptor corepressor 2 (HDAC3/NCoR2) (Homo sapiens, UniProt O15379). The experiment can be described thus: biochemical.
Chain of Histone deacetylase 3/Nuclear receptor corepressor 2 (HDAC3/NCoR2) (O15379 whole entry): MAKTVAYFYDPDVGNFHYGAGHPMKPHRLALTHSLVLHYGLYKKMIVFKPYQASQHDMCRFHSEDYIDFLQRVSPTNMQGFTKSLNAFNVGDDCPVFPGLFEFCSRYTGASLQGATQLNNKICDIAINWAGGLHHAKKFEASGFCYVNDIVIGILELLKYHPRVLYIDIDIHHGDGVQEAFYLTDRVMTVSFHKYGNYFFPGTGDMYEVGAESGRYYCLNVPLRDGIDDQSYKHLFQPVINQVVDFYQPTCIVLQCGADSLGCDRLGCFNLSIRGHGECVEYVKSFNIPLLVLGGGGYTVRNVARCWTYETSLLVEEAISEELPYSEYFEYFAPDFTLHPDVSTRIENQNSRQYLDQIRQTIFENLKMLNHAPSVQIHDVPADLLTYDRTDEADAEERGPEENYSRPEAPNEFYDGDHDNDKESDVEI
Chain of Histone deacetylase 3/Nuclear receptor corepressor 2 (HDAC3/NCoR2) (Q9Y618 whole entry, further chain): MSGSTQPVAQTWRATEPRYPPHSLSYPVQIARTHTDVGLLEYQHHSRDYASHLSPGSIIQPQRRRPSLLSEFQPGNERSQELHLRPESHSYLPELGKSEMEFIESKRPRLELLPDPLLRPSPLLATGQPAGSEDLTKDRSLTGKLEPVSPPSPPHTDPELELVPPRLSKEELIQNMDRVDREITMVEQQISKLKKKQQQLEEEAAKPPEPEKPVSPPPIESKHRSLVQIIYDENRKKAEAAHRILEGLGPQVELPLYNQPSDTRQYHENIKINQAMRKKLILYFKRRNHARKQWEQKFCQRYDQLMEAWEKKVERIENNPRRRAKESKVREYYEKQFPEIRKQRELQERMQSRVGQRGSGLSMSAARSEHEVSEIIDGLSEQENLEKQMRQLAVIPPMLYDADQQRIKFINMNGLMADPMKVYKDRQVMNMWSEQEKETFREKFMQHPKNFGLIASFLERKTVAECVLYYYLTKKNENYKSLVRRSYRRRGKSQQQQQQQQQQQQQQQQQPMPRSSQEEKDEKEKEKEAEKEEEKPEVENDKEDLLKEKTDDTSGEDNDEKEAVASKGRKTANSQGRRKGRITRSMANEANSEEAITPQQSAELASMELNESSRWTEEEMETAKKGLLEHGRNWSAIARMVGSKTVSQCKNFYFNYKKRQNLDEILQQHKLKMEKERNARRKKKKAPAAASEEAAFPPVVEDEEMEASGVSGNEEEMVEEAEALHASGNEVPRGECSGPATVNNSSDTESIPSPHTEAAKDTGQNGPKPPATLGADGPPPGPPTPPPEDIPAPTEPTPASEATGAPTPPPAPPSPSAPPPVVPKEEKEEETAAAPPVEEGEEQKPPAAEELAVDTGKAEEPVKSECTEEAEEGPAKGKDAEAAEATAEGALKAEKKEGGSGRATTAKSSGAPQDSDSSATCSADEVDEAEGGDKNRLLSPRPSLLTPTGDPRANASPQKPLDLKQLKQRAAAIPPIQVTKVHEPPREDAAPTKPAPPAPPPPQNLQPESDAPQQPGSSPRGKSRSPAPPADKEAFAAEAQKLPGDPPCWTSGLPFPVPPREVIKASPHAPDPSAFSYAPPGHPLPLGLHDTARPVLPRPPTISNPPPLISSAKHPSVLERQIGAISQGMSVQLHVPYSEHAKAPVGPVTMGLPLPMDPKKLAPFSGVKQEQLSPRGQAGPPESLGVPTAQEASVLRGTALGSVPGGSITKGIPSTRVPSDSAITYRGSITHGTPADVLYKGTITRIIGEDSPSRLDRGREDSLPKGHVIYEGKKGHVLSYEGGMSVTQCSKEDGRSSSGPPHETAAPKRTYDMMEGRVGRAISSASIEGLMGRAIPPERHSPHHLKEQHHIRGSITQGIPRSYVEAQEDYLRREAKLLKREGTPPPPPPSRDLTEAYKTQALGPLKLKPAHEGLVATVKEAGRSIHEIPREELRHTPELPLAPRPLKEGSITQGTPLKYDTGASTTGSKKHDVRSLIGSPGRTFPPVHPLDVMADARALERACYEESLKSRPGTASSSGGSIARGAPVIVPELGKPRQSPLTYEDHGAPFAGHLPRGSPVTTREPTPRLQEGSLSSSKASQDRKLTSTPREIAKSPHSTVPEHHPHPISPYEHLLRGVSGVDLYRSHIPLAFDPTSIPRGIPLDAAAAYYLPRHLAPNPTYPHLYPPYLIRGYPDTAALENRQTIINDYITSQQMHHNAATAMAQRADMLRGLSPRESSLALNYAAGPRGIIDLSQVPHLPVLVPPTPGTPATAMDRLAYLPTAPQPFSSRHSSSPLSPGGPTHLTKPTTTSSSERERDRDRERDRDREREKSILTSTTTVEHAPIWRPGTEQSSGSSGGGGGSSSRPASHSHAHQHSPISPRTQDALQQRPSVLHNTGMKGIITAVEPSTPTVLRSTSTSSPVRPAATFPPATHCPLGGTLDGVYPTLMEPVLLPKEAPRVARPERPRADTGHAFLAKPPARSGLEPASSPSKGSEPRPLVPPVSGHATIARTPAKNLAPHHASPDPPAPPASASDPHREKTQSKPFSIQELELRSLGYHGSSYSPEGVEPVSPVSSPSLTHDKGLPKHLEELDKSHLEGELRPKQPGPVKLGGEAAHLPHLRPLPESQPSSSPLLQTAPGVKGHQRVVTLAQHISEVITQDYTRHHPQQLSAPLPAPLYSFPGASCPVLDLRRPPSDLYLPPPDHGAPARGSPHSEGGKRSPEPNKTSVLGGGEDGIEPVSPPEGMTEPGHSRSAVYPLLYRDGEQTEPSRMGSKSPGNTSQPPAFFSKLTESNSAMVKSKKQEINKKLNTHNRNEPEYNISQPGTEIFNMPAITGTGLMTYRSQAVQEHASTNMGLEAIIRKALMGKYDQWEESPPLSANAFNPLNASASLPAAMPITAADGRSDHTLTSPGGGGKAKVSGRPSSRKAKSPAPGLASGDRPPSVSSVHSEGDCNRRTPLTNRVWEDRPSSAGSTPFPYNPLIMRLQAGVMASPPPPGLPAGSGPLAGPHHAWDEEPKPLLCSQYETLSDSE
Conditions: not given
For `C#CCN(C)Cc1cc2cc(OCCCN3CCCCC3)ccc2n1C`, the pIC50 was less than 5.00.
In turn, `C#CCN1CCN(CCCOc2ccc3c(ccn3S(=O)(=O)c3ccc(C(=O)NO)cc3)c2)CC1` gave a pIC50 of 5.57.
With `O=C(NO)c1ccc(S(=O)(=O)n2ccc3cc(OCCCN4CCCCC4)ccc32)cc1`, the pIC50 is 6.03.
